In patent US8192962B2, “Processes for detecting toxic substances” (Daikin Industries, Ltd., priority 2001, dated 2012):

Tested on: Metabolism protein genes
Experiment: DNA chip mRNA expression in yeast, metabolism protein genes (Table 7)
Type: cell-based, Saccharomyces cerevisiae S288C
Outline: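 Expression change after 2 h toxicant exposure (growth-inhibiting, sub-lethal) of log-phase S. cerevisiae S288C at 25° C. Oligo-dT-purified mRNA was labeled with Cy3-dUTP or Cy5-dUTP and hybridized >12 h at 65° C. to a genome-wide chip; ratio of scanned fluorescence to control.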

Substance: Na2As [(1)]
- The level of expressed mRNA in the presence of chemical substance/The level of expressed mRNA in the absence of chemical substance (yeast gene YJR155W): 10.6
- The level of expressed mRNA in the presence of chemical substance/The level of expressed mRNA in the absence of chemical substance (yeast gene YKL035W): 1.0
- level of expressed mRNA in the presence/in the absence of chemical substance (yeast gene YKL060C): 1.6
- The level of expressed mRNA in the presence of chemical substance/The level of expressed mRNA in the absence of chemical substance (yeast gene YKL091C): 1.2
- The level of expressed mRNA in the presence of chemical substance/The level of expressed mRNA in the absence of chemical substance (yeast gene YKL104C): 1.0
- level of expressed mRNA in the presence/in the absence of chemical substance (yeast gene YKL148C): 0.9
- The level of expressed mRNA in the presence of chemical substance/The level of expressed mRNA in the absence of chemical substance (yeast gene YKL152C): 1.3
- level of expressed mRNA in the presence/in the absence of chemical substance (yeast gene YKL157W): 0.7
- The level of expressed mRNA in the presence of chemical substance/The level of expressed mRNA in the absence of chemical substance (yeast gene YKL213C): 0.9
- The level of expressed mRNA in the presence of chemical substance/The level of expressed mRNA in the absence of chemical substance (yeast gene YKL215C): 0.6
- level of expressed mRNA in the presence/in the absence of chemical substance (yeast gene YKR034W): 0.9
- The level of expressed mRNA in the presence of chemical substance/The level of expressed mRNA in the absence of chemical substance (yeast gene YLL058W): 1.0
- level of expressed mRNA in the presence/in the absence of chemical substance (yeast gene YLR006C): 0.7
- level of expressed mRNA in the presence/in the absence of chemical substance (yeast gene YLR044C): 0.8
- level of expressed mRNA in the presence/in the absence of chemical substance (yeast gene YLR056W): 1.0
- level of expressed mRNA in the presence/in the absence of chemical substance (yeast gene YLR058C): 0.9
- level of expressed mRNA in the presence/in the absence of chemical substance (yeast gene YLR081W): 1.3
- level of expressed mRNA in the presence/in the absence of chemical substance (yeast gene YLR089C): 0.9
- The level of expressed mRNA in the presence of chemical substance/The level of expressed mRNA in the absence of chemical substance (yeast gene YLR180W): 1.3
- The level of expressed mRNA in the presence of chemical substance/The level of expressed mRNA in the absence of chemical substance (yeast gene YLR273C): 1.4
- level of expressed mRNA in the presence/in the absence of chemical substance (yeast gene YLR284C): 0.9
- The level of expressed mRNA in the presence of chemical substance/The level of expressed mRNA in the absence of chemical substance (yeast gene YLR299W): 1.2
- The level of expressed mRNA in the presence of chemical substance/The level of expressed mRNA in the absence of chemical substance (yeast gene YLR300W): 0.9
- level of expressed mRNA in the presence/in the absence of chemical substance (yeast gene YLR304C): 0.7
- The level of expressed mRNA in the presence of chemical substance/The level of expressed mRNA in the absence of chemical substance (yeast gene YLR307W): 0.9
- The level of expressed mRNA in the presence of chemical substance/The level of expressed mRNA in the absence of chemical substance (yeast gene YLR348C): 1.1
- level of expressed mRNA in the presence/in the absence of chemical substance (yeast gene YLR354C): 1.1
- level of expressed mRNA in the presence/in the absence of chemical substance (yeast gene YLR372W): 0.7
- level of expressed mRNA in the presence/in the absence of chemical substance (yeast gene YML022W): 0.9
- The level of expressed mRNA in the presence of chemical substance/The level of expressed mRNA in the absence of chemical substance (yeast gene YML054C): 1.5
- The level of expressed mRNA in the presence of chemical substance/The level of expressed mRNA in the absence of chemical substance (yeast gene YML070W): 0.9
- The level of expressed mRNA in the presence of chemical substance/The level of expressed mRNA in the absence of chemical substance (yeast gene YML100W): 0.8
- The level of expressed mRNA in the presence of chemical substance/The level of expressed mRNA in the absence of chemical substance (yeast gene YMR008C): 0.7
- level of expressed mRNA in the presence/in the absence of chemical substance (yeast gene YMR011W): 1.3
- level of expressed mRNA in the presence/in the absence of chemical substance (yeast gene YMR015C): 0.7
- The level of expressed mRNA in the presence of chemical substance/The level of expressed mRNA in the absence of chemical substance (yeast gene YMR020W): 1.3
- level of expressed mRNA in the presence/in the absence of chemical substance (yeast gene YMR083W): 1.4
- The level of expressed mRNA in the presence of chemical substance/The level of expressed mRNA in the absence of chemical substance (yeast gene YMR105C): 1.9
- The level of expressed mRNA in the presence of chemical substance/The level of expressed mRNA in the absence of chemical substance (yeast gene YMR189W): 0.7
- level of expressed mRNA in the presence/in the absence of chemical substance (yeast gene YMR205C): 0.5
- level of expressed mRNA in the presence/in the absence of chemical substance (yeast gene YMR261C): 0.7
- The level of expressed mRNA in the presence of chemical substance/The level of expressed mRNA in the absence of chemical substance (yeast gene YMR271C): 1.6
- The level of expressed mRNA in the presence of chemical substance/The level of expressed mRNA in the absence of chemical substance (yeast gene YMR296C): 0.6
- level of expressed mRNA in the presence/in the absence of chemical substance (yeast gene YMR323W): 0.8
- The level of expressed mRNA in the presence of chemical substance/The level of expressed mRNA in the absence of chemical substance (yeast gene YNL012W): 1.3
- level of expressed mRNA in the presence/in the absence of chemical substance (yeast gene YNL025C): 0.9
- The level of expressed mRNA in the presence of chemical substance/The level of expressed mRNA in the absence of chemical substance (yeast gene YNL045W): 0.8
- The level of expressed mRNA in the presence of chemical substance/The level of expressed mRNA in the absence of chemical substance (yeast gene YNL104C): 1.1
- The level of expressed mRNA in the presence of chemical substance/The level of expressed mRNA in the absence of chemical substance (yeast gene YNL106C): 1.0
- The level of expressed mRNA in the presence of chemical substance/The level of expressed mRNA in the absence of chemical substance (yeast gene YNL169C): 0.7
- level of expressed mRNA in the presence/in the absence of chemical substance (yeast gene YNL192W): 1.1
- The level of expressed mRNA in the presence of chemical substance/The level of expressed mRNA in the absence of chemical substance (yeast gene YNL231C): 1.5
- The level of expressed mRNA in the presence of chemical substance/The level of expressed mRNA in the absence of chemical substance (yeast gene YNL322C): 0.8
- The level of expressed mRNA in the presence of chemical substance/The level of expressed mRNA in the absence of chemical substance (yeast gene YNL331C): 8.6
- The level of expressed mRNA in the presence of chemical substance/The level of expressed mRNA in the absence of chemical substance (yeast gene YNL332W): 1.1
- The level of expressed mRNA in the presence of chemical substance/The level of expressed mRNA in the absence of chemical substance (yeast gene YNR019W): 1.0
- The level of expressed mRNA in the presence of chemical substance/The level of expressed mRNA in the absence of chemical substance (yeast gene YNR033W): 0.6
- The level of expressed mRNA in the presence of chemical substance/The level of expressed mRNA in the absence of chemical substance (yeast gene YNR059W): 1.1
- The level of expressed mRNA in the presence of chemical substance/The level of expressed mRNA in the absence of chemical substance (yeast gene YOL058W): 0.8
- level of expressed mRNA in the presence/in the absence of chemical substance (yeast gene YOL086C): 1.1
- level of expressed mRNA in the presence/in the absence of chemical substance (yeast gene YOL108C): 1.4
- level of expressed mRNA in the presence/in the absence of chemical substance (yeast gene YOL116W): 1.1
- The level of expressed mRNA in the presence of chemical substance/The level of expressed mRNA in the absence of chemical substance (yeast gene YOL126C): 1.0
- The level of expressed mRNA in the presence of chemical substance/The level of expressed mRNA in the absence of chemical substance (yeast gene YOL153C): 1.0
- level of expressed mRNA in the presence/in the absence of chemical substance (yeast gene YOL156W): 1.1
- The level of expressed mRNA in the presence of chemical substance/The level of expressed mRNA in the absence of chemical substance (yeast gene YOL165C): 10.1
- level of expressed mRNA in the presence/in the absence of chemical substance (yeast gene YOR002W): 0.8
- level of expressed mRNA in the presence/in the absence of chemical substance (yeast gene YOR085W): 0.7
- The level of expressed mRNA in the presence of chemical substance/The level of expressed mRNA in the absence of chemical substance (yeast gene YOR099W): 0.8
- level of expressed mRNA in the presence/in the absence of chemical substance (yeast gene YOR103C): 1.1
- level of expressed mRNA in the presence/in the absence of chemical substance (yeast gene YOR108W): 0.8
- level of expressed mRNA in the presence/in the absence of chemical substance (yeast gene YOR128C): 0.9
- The level of expressed mRNA in the presence of chemical substance/The level of expressed mRNA in the absence of chemical substance (yeast gene YOR130C): 0.8
- level of expressed mRNA in the presence/in the absence of chemical substance (yeast gene YOR142W): 1.0
- level of expressed mRNA in the presence/in the absence of chemical substance (yeast gene YOR176W): 0.7
- level of expressed mRNA in the presence/in the absence of chemical substance (yeast gene YOR178C): 1.4
- level of expressed mRNA in the presence/in the absence of chemical substance (yeast gene YOR251C): 1.1
- The level of expressed mRNA in the presence of chemical substance/The level of expressed mRNA in the absence of chemical substance (yeast gene YOR336W): 0.7
- The level of expressed mRNA in the presence of chemical substance/The level of expressed mRNA in the absence of chemical substance (yeast gene YOR347C): 0.9
- level of expressed mRNA in the presence/in the absence of chemical substance (yeast gene YOR348C): 1.1
- The level of expressed mRNA in the presence of chemical substance/The level of expressed mRNA in the absence of chemical substance (yeast gene YPL017C): 1.0
- level of expressed mRNA in the presence/in the absence of chemical substance (yeast gene YPL028W): 0.7
- level of expressed mRNA in the presence/in the absence of chemical substance (yeast gene YPL057C): 1.9
- level of expressed mRNA in the presence/in the absence of chemical substance (yeast gene YPL135W): 0.9
- level of expressed mRNA in the presence/in the absence of chemical substance (yeast gene YPL148C): 1.2
- The level of expressed mRNA in the presence of chemical substance/The level of expressed mRNA in the absence of chemical substance (yeast gene YPR026W): 0.9
- level of expressed mRNA in the presence/in the absence of chemical substance (yeast gene YPR113W): 1.1
- level of expressed mRNA in the presence/in the absence of chemical substance (yeast gene YPR165W): 1.3
- The level of expressed mRNA in the presence of chemical substance/The level of expressed mRNA in the absence of chemical substance (yeast gene YPR167C): 5.3
- level of expressed mRNA in the presence/in the absence of chemical substance (yeast gene YPR183W): 0.9
